target: EGFR (human) (UniProt P00533)
Sequence (P00533 whole entry, looked up): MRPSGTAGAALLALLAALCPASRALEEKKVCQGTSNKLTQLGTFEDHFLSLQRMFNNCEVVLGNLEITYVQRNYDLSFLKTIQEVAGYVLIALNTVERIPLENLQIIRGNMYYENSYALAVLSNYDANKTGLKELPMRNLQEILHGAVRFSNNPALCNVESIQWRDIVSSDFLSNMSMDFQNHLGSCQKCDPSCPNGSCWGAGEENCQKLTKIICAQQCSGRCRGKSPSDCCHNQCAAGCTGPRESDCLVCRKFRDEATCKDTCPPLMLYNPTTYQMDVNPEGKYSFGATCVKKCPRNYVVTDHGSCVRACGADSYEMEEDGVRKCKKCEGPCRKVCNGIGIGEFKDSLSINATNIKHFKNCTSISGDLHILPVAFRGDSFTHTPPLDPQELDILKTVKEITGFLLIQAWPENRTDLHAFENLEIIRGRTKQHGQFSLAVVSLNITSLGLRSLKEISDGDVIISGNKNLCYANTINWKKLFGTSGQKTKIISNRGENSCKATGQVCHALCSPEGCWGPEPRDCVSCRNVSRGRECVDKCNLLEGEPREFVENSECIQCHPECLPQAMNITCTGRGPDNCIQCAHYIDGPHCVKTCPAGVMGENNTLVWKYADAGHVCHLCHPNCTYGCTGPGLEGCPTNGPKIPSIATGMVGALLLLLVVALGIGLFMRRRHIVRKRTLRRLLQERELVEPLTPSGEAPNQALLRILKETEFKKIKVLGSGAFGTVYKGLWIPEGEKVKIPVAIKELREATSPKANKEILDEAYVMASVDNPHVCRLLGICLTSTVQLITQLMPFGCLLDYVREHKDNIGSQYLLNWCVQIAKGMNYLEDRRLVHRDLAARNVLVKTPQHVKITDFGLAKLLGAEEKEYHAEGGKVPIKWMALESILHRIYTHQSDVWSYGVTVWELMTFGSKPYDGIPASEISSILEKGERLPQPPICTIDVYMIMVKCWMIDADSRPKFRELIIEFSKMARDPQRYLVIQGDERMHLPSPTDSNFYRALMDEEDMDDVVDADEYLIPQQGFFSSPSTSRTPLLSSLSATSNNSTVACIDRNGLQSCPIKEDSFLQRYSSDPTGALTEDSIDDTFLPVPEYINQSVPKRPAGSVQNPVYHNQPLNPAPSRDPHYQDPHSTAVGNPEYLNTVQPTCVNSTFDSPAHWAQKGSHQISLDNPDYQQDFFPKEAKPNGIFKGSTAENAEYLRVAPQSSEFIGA

| SMILES | IC50 [nM] |
| --- | --- |
| Cc1cccc(Nc2nc3nonc3nc2NN=Cc2ccc(-c3cccc(C(=O)O)c3)o2)c1 | < 1000 |
| O=C(O)c1ccc(-c2ccc(C=NNc3nc4nonc4nc3Nc3ccc(F)cc3)o2)cc1 | < 1000 |
| O=[N+]([O-])c1cccc(-c2ccc(C=NNc3nc4nonc4nc3Nc3ccc(F)cc3)o2)c1 | < 1000 |
| NC(=O)c1cccc(-c2ccc(C=NNc3nc4nonc4nc3Nc3ccc(Cl)c(Cl)c3)o2)c1 | < 1000 |
| Fc1ccc(Nc2nc3nonc3nc2NN=Cc2cc3ccccc3o2)cc1Cl | < 1000 |
| O=C(O)c1ccc(-c2ccc(C=NNc3nc4nonc4nc3Nc3ccc(F)c(Cl)c3)o2)cc1 | < 1000 |
| CCOC(=O)c1ccccc1C=NNc1nc2nonc2nc1Nc1ccc(Cl)c(Cl)c1 | < 1000 |
| O=C(O)c1cc(-c2ccc(C=NNc3nc4nonc4nc3Nc3ccc(Cl)c(Cl)c3)o2)ccc1Cl | < 1000 |
| O=C(O)c1cc(-c2ccc(C=NNc3nc4nonc4nc3Nc3ccc(F)c(Cl)c3)o2)ccc1Cl | < 1000 |
| Oc1c(Br)cc(Cl)cc1C=NNc1nc2nonc2nc1Nc1ccc(Cl)c(Cl)c1 | < 1000 |
| O=c1[nH]c2ccc(Nc3nc4nonc4nc3NN=Cc3cc(I)cc(I)c3OCc3ccc(Cl)cc3Cl)cc2[nH]1 | < 1000 |
| O=C(O)c1ccc(C=NNc2nc3nonc3nc2Nc2ccc(F)c(Cl)c2)cc1 | < 1000 |
| Fc1ccc(Nc2nc3nonc3nc2NN=Cc2ccc(-c3ccc(Cl)cc3)o2)cc1Cl | < 1000 |
| O=C(O)c1cccc(C=NNc2nc3nonc3nc2Nc2ccc(Cl)c(Cl)c2)c1 | < 1000 |
| O=C(O)c1cccc(C=NNc2nc3nonc3nc2Nc2ccc(F)c(Cl)c2)c1 | < 1000 |
| O=C1Nc2ccccc2C1=NNc1nc2nonc2nc1Nc1ccc(F)c(Cl)c1 | < 1000 |
| O=C(O)c1cc(-c2ccc(C=NNc3nc4nonc4nc3Nc3ccc(Br)cc3)o2)ccc1Cl | < 1000 |
| O=[N+]([O-])c1cccc(-c2ccc(C=NNc3nc4nonc4nc3Nc3cccc(Cl)c3)o2)c1 | < 1000 |
| O=C(O)c1cc(-c2ccc(C=NNc3nc4nonc4nc3Nc3ccccc3F)o2)ccc1Cl | < 1000 |
| COc1ccc(C=NNc2nc3nonc3nc2Nc2ccc(Cl)c(Cl)c2)c(O)c1 | < 1000 |
| O=C(O)c1cc(-c2ccc(C=NNc3nc4nonc4nc3Nc3ccc(F)cc3)o2)ccc1Cl | < 1000 |

| SMILES | IC50 [nM] |
| --- | --- |
| Oc1ccc(C=NNc2nc3nonc3nc2Nc2ccc(Cl)c(Cl)c2)c(O)c1 | < 1000 |
| O=C(O)c1cc(-c2ccc(C=NNc3nc4nonc4nc3Nc3ccccc3F)o2)ccc1O | < 1000 |
| COc1cc(Br)cc(C=NNc2nc3nonc3nc2Nc2cccc(Cl)c2)c1O | < 1000 |
| O=C1Nc2ccccc2C1=NNc1nc2nonc2nc1Nc1ccc(Cl)c(Cl)c1 | < 1000 |
| Oc1c(Br)cc(Br)cc1C=NNc1nc2nonc2nc1Nc1cccc(Cl)c1 | < 1000 |
| Fc1ccc(Nc2nc3nonc3nc2NN=Cc2ccc(-c3ccc(Cl)cc3Cl)o2)cc1 | < 1000 |
| COc1cccc(C=NNc2nc3nonc3nc2Nc2ccc(Cl)c(Cl)c2)c1O | < 1000 |
| Clc1ccc(Nc2nc3nonc3nc2NN=Cc2ccc(-c3ccccc3)o2)cc1Cl | < 1000 |
| Oc1c(Br)cc(Br)cc1C=NNc1nc2nonc2nc1Nc1ccc(F)c(Cl)c1 | < 1000 |
| Clc1ccc(-c2ccc(C=NNc3nc4nonc4nc3Nc3ccc(Cl)c(Cl)c3)o2)cc1 | < 1000 |
| Clc1ccc(Nc2nc3nonc3nc2NN=Cc2cc3ccccc3o2)cc1Cl | < 1000 |
| NC(=O)c1cccc(-c2ccc(C=NNc3nc4nonc4nc3Nc3ccc(F)c(Cl)c3)o2)c1 | < 1000 |
| O=C(O)c1cccc(-c2ccc(C=NNc3nc4nonc4nc3Nc3ccc(Cl)c(Cl)c3)o2)c1 | < 1000 |
| COc1ccc(O)c(C=NNc2nc3nonc3nc2Nc2ccc(Cl)c(Cl)c2)c1 | < 1000 |
| Cc1cccc(Nc2nc3nonc3nc2NN=Cc2ccc(-c3ccc(Cl)c(C(=O)O)c3)o2)c1C | < 1000 |
| O=C(O)c1ccc(-c2ccc(C=NNc3nc4nonc4nc3Nc3ccc(Cl)c(Cl)c3)o2)cc1 | < 1000 |
| Fc1ccc(Nc2nc3nonc3nc2NN=Cc2ccc(-c3ccccc3)o2)cc1Cl | < 1000 |
| Clc1ccc(Nc2nc3nonc3nc2NN=Cc2ccco2)cc1Cl | < 1000 |
| O=C(O)c1cccc(-c2ccc(C=NNc3nc4nonc4nc3Nc3cccc(Cl)c3)o2)c1 | < 1000 |
| COc1cc(C=NNc2nc3nonc3nc2Nc2ccccc2F)cc([N+](=O)[O-])c1O | < 1000 |

— the Kinase Knowledgebase extract (Sharma et al. 2016)
